Key:
EAAT4 = target: T1, EAAT4 (Homo sapiens, UniProt P48664); assay: Saturation binding / Scatchard analysis, EAAT4 expressed on COS-1 cells; conditions: COS-1 cell membrane preparation
T1 construct: expressed in transfected cells; host or cells: COS-1 cells (membrane preparation)
T1 sequence (P48664 1-564): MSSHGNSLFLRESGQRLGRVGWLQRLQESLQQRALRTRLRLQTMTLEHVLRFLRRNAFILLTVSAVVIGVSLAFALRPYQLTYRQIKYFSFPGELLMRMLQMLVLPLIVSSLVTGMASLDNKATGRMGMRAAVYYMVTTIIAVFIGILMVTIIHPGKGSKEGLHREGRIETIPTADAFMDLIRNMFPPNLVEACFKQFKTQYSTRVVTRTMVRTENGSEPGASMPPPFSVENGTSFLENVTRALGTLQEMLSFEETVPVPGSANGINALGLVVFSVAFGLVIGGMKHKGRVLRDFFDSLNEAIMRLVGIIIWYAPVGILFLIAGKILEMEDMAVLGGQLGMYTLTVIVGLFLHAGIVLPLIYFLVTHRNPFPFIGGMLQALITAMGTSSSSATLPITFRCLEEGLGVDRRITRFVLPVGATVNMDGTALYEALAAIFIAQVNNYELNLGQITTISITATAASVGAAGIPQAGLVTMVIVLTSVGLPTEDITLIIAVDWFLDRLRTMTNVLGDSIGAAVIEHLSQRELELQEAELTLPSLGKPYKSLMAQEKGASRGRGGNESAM
Protocol: (§1) About 20 ml of a medium contained in a T-flask (150 cm^2) was inoculated with COS-1 cells expressing EAAT which were then incubated therein until they reached confluence. After aspiration of the medium, the cells were washed with about 10 ml of phosphate buffered saline (PBS). After adding 4 ml of 0.25% trypsin/1 mM EDTA and allowing to stand for 5 minutes, 6 ml of the medium was added and the cells were collected into a 50 ml tube. Then they were centrifuged at 1200 rpm for 2 minutes and the supernatant was aspirated. The residue was thoroughly homogenized in a binding buffer (50 mM Tris-HCl (pH 7.4), 120 mM NaCl, 5 mM KCl, 2.5 mM CaCl2, 1 mM MgCl2) with the use of a Polytron homogenizer on ice. The homogenate was centrifuged at 30,000×g at 4° C. for 20 minutes. […]
(§2) Then the reaction was ceased by filtering the mixture through a GF/C filter (Whatman) having been soaked in a 0.1% poly-L-lysine hydrobromide solution for an hour followed by washing with 20 mM Tris buffer. After drying the filter, a solid scintillator MeltiLex A (PerkinElmer) was melted-on and the radioactivity was measured with a β-counter. The radioactivity of the sample free from TFB-TBOA was referred to as the total binding amount, while the radioactivity of the sample containing TFB-TBOA was referred to as the nonspecific binding amount. Then the difference was calculated as the specific binding amount.

EAAT2 [1] = target: T2, EAAT2 (Homo sapiens, UniProt P43004); assay: Saturation binding / Scatchard analysis, EAAT2 expressed on COS-1 cells; set-up: expressed in transfected cells; host or cells: COS-1 cells (membrane preparation); conditions: COS-1 cell membrane preparation
Protocol: as §1, §2

EAAT5 = target: T3, EAAT5 (Homo sapiens, UniProt O00341); assay: Saturation binding / Scatchard analysis, EAAT5 expressed on COS-1 cells; conditions: COS-1 cell membrane preparation
T3 construct: expressed in transfected cells; host or cells: COS-1 cells (membrane preparation)
Protocol: as §1, §2

human EAAT3 = target: T4, human EAAT3 (Homo sapiens, UniProt P43005); assay: Inhibition of [14C]-glutamic acid uptake by EAAT3 expressed in MDCK or COS-1 cells; format: cell-based; conditions: 1 μM L-[14C]-glutamic acid, 12 minutes
T4 construct: expressed in transfected cells
T4 sequence (P43005 1-524): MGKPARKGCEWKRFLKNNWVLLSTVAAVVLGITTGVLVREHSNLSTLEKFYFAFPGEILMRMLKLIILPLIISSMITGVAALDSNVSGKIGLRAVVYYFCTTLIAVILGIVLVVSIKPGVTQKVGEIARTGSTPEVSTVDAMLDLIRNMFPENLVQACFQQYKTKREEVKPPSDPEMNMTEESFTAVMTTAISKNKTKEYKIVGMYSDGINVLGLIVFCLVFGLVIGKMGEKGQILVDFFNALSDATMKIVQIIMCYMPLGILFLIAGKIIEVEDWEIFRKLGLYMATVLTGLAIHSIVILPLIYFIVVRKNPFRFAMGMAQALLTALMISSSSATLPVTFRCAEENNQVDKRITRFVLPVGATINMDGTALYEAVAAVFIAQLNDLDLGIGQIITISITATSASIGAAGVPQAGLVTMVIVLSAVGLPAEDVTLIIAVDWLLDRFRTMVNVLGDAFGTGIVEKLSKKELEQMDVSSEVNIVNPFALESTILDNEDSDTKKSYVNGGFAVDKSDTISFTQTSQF
Protocol: (§3) In accordance with a known method (Shimamoto, K. et al., Mol. Pharmacol. 53, 195-201, 1998; Bioorg. Med. Chem. Lett. 10, 2407-2410, 2000), the inhibitory activity was assayed as the ability to inhibit the uptake of [^14C]-glutamic acid by human EAAT2 and EAAT3 stably expressed in MDCK (Madin-Darby canine kidney) cells or transiently expressed in COS-1 cells. The glutamate uptake activity was assayed by incubating a mixture of 1 μM of L-[^14C]-glutamic acid with a sample compound at a predetermined concentration for 12 minutes, lysing the cells and then measuring the radioactivity incorporated into the cells with a liquid scintillator. The amount of uptake was expressed in percentage by referring the amount of uptake in the absence of a test compound (i.e., the buffer alone) as 100% and referring the amount of uptake in a sodium-free solution as 0%.

EAAT2 [2] = target: T2, EAAT2; assay: Inhibition of [14C]-glutamic acid uptake by EAAT2 expressed in MDCK or COS-1 cells; format: cell-based; set-up: expressed in transfected cells; conditions: 1 μM L-[14C]-glutamic acid, 12 minutes
Protocol: as §3

T2 sequence (P43004 whole entry): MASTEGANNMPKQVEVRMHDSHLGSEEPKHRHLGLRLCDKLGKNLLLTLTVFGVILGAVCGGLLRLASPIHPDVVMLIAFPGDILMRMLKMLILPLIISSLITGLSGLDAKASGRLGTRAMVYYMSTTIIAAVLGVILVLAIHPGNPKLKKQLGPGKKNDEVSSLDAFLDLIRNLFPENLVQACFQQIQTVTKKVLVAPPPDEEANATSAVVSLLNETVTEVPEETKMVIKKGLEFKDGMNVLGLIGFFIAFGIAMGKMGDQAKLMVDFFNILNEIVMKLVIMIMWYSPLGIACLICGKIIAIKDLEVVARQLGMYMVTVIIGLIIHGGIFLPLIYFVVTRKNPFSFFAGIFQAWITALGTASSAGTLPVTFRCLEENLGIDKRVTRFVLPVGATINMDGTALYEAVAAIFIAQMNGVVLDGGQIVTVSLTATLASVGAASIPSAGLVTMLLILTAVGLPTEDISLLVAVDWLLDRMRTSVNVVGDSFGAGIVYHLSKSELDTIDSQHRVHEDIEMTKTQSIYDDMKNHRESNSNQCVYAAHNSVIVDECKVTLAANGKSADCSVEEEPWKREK
T3 sequence (O00341 whole entry, species assumed): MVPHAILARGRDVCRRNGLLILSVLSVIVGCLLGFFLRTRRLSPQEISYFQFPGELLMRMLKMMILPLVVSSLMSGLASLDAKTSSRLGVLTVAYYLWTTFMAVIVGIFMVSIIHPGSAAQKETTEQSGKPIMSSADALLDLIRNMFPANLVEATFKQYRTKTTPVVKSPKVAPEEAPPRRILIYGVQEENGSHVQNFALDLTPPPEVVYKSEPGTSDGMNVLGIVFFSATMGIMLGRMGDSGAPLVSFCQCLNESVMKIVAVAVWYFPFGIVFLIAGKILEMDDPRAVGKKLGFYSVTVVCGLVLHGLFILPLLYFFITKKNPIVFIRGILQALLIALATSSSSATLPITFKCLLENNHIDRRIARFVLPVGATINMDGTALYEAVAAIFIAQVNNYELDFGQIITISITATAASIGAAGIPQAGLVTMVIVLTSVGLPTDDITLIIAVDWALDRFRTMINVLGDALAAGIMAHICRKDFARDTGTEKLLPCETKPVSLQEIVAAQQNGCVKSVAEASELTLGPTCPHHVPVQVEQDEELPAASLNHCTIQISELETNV

Structure (SMILES) | Kd (EAAT4) [nM] | Kd (EAAT2 [1]) [nM] | Kd (EAAT5) [nM] | IC50 (human EAAT3) [nM] | IC50 (EAAT2 [2]) [nM]
[3H]CC([3H])c1ccc(C(=O)Nc2cccc(CO[C@H](C(=O)O)[C@H](N)C(=O)O)c2)cc1 (stereo partly drawn) [(^3H)Et-BzA-TBOA] | 13 | 26 | 30 | – | –
N[C@H](C(=O)O)[C@H](OCc1cccc(NC(=O)c2ccc(I)cc2)c1)C(=O)O [I-BzA-TBOA, (2S,3S)-3-[3-(4-iodobenzoylamino)benzyloxy]aspartic acid] | – | – | – | 56 ± 1.8 | 4.8 ± 0.32
NC(C(=O)O)C(OCc1ccccc1)C(=O)O [L-TBOA, threo-β-benzyloxyaspartic acid, reference compound] | – | – | – | 1300 ± 120 | 1300 ± 120
N[C@H](C(=O)O)[C@H](OCc1cccc(NC(=O)c2ccc(C(F)(F)F)cc2)c1)C(=O)O [TFB-TBOA, reference compound] | – | – | – | 28 ± 1.8 | 1.9 ± 0.1

Source: US8097654B2, “Radiolabeled 3-[3-(benzoyl-amido)benzyloxy]aspartic acid derivative and method of producing the same” (Suntory Holdings Limited, priority 2004, dated 2012)
